Data on one compound can be found in ChEMBL document CHEMBL1136899, “Synthesis and therapeutic evaluation of pyridyl based novel mTOR inhibitors” (Bioorg Med Chem Lett, 2009).

Structures are written as SMILES. Calls of active or inactive are those of the source. No cut-off for these calls is given here.

One series has as its system PBMC. In words: Inhibition of concanavalin A-induced IFN-gamma production in human PBMC cells. The series is classed as functional, cell-based.
In series [1] the test system is Plasma. Put plainly: Stability in mouse plasma. The series is classed as ADME, cell-free.
Series [2] has as its system Plasma. In words: Stability in rat plasma. The format is ADME, cell-free.
Series [3] deals with Plasma. In words: Stability in human plasma. The series is classed as ADME, cell-free.
Series [4] in a line: Cmax in mouse plasma at 100 mg/kg, ip. The series is classed as ADME, organism-based. Also noted: dose 100 mg/kg, route intraperitoneal.
The nature of series [5]: Cmax in mouse plasma at 15 mg/kg, ip. The series is classed as ADME, organism-based. Also noted: dose 15 mg/kg, route intraperitoneal.
Series [6] has as its system Mus musculus. Put plainly: Inhibition of dextran sulfate sodium-induced weight loss in mouse at 150 mg/kg, ip administered daily for 10 days by macroscopic analysis. The series is classed as functional, organism-based. Also noted: dose 150 mg/kg.
Series [7] deals with Mus musculus. In words: Suppression of dextran sulfate sodium-induced colitis in mouse assessed as improved rectal bleeding index at 150 mg/kg, ip administered daily for 10 days by macroscopic analysis. The series is classed as functional, organism-based. Set-up: dose 150 mg/kg.
Series [8] deals with Mus musculus. Put plainly: Suppression of dextran sulfate sodium-induced colitis in mouse assessed as decrease in disease activity index at 150 mg/kg, ip administered daily for 10 days by macroscopic analysis. The format is functional, organism-based. Set-up: dose 150 mg/kg.
Series [9] relates to Mus musculus. Put plainly: Reversal of dextran sulfate sodium-induced shortening of colon in mouse at 150 mg/kg, ip administered daily for 10 days by macroscopic analysis. The format is functional, organism-based. Also noted: dose 150 mg/kg.
Series [10] has as its system Mus musculus. Put plainly: Decrease in dextran sulfate sodium-induced edema in mouse at 150 mg/kg, ip administered daily for 10 days by histological analysis. The format is functional, organism-based. Set-up: dose 150 mg/kg.
The test system of series [11] is Mus musculus. Put plainly: Suppression of dextran sulfate sodium-induced colitis in mouse assessed as inhibition of leukocyte infiltration in colonic mucosa at 150 mg/kg, ip administered daily for 10 days by histological analysis. The format is functional, organism-based. Set-up: dose 150 mg/kg.
The test system of series [12] is Mus musculus. Put plainly: Protection against dextran sulfate sodium-induced crypt damage in mouse at 150 mg/kg, ip administered daily for 10 days by histological analysis. The series is classed as functional, organism-based. Set-up: dose 150 mg/kg.
The subject of series [13] is Mus musculus. Put plainly: Blockade of dextran sulfate sodium-induced mTOR activation in mouse at 150 mg/kg, ip administered daily for 10 days by Western blot analysis. The series is classed as functional, organism-based. Set-up: dose 150 mg/kg. (In western blotting, separated proteins are transferred to a membrane and probed.)

The Cmax is the peak of the concentration-time curve. As to `CC(Cl)C(=O)Nc1ccc(C#N)nc1` (centres undefined), the Activity result with PBMC is “Dose-dependent effect”. The Stability result in the series with Plasma [1], in the series on Plasma [2] and with Plasma [3] was “Stable” each time. Also, the figures for the highest concentration (Cmax) in [4] and in series [5] were 180 µM and 30 µM, respectively. Further, the inhibition result with Mus musculus [6] and in the series with Mus musculus [11] was “Active” in each case. Further, the result in the series with Mus musculus [7], in the series with Mus musculus [8], with Mus musculus [9], in the series on Mus musculus [10], in the series with Mus musculus [12] and with Mus musculus [13] was Active.
